Results on five molecules are retold here after patent US20230391826A1, “COMPOSITIONS AND METHODS FOR TREATING DISEASES” (Sanford Burnham Prebys Medical Discovery Institute, priority 2020, published 2023).

Values after ≈ are worked out from the molar mass of the structure shown. Where two headings read alike, the source gives them in different places. Where a SMILES comes first, the peptide text is derived from it. Bridges are numbered along the chain shown (N, C = ends). Roman numbers before positions name the chains, in order. [ ]: non-standard residue; d: D form. βAla = NCCC(=O)O

As usually defined, the solubility is the concentration that dissolves in the medium under given conditions. The term Kd denotes the concentration at which binding is half-saturated. A higher Kd goes with lower affinity. In general, EC50 refers to the concentration giving half of the maximal effect.

A short description of series [1]: Peptide solubility in PBS/H2O/DMSO. It counts as physicochemical. The method, then:
Peptide identity and purity are documented by mass spectrometry and high-performance liquid chromatography (HPLC). The peptide solubility values are determined. Concentrated peptide stocks are prepared in DMSO or H2O and stored frozen at −80° C.

Series [2] concerns the target T1, EphA2 extracellular domain fused to Fc (EphA2-Fc) (Homo sapiens, UniProt P29317).
T1 construct: immobilized EphA2 extracellular domain fused to the Fc portion of an antibody (EphA2-Fc)
As to the kind of experiment: ELISA: inhibition of ephrinA5-AP binding to immobilized EphA2-Fc. The source says: FIG. 1A-1C illustrates an example of Potency and selectivity of EphA2-targeting dimeric peptides. (FIG. 1A) ELISAs comparing the ability of the peptides to inhibit binding of ephrin-A5 fused to alkaline phosphatase (ephrinA5-AP) to the immobilized EphA2 extracellular domain fused to the Fc portion of an antibody (EphA2-Fc). The graphs show averages ±SD from triplicate measurements from a representative experiment. IC50 values calculated from the fitted curves in each experiment are shown. Averages of IC50 values obtained from multiple experiments are shown in panel FIG. 1B and Table 3. The 10 nM peptide concentration is outlined in red. (FIG. 1B) Plot of the average IC50 values (listed in Table 3) for different ligands. […] (FIG. 1C) EphrinA5-AP binding to EphA receptors and ephrinB2-AP binding to EphB receptors in the presence of dimeric peptides representing each of the three configurations. Values are normalized to ephrin binding without peptide. The graphs show averages and SDs from triplicate measurements (with each measurement shown as a dot).
Background: An ELISA detects its analyte on a solid surface through an enzyme-linked reagent.

The target of series [3] is T2, EphA2 LBD (Homo sapiens, UniProt P29317).
T2 construct: made in house; host or cells: E. coli Origami 2(DE3)
T2 sequence (P29317 28-200): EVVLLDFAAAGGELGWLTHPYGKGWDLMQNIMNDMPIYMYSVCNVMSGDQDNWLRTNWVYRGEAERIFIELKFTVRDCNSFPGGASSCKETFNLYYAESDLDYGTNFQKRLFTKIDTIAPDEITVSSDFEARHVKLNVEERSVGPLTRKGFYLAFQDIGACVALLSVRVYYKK
As to the kind of experiment: Isothermal titration calorimetry (ITC) with soluble EphA2 LBD. It counts as binding. The method, then: (FIG. 10A-10E) The EphA2 LBD was titrated at 200-250 μM into 10-12.5 μM of the indicated peptide.
For ITC, all peptides are dissolved in DMSO and both the EphA2 LBD and the peptides are diluted to obtain a final buffer containing 9.5 mM HEPES, pH 7.9, 95 mM NaCl, and 5% DMSO. The experiments are carried out at 296 K (23° C.) using an ITC200 calorimeter (Microcal). Two-microliter aliquots of a peptide solution are injected into the cell containing 205 μL EphA2 LBD. 200-400 μM peptides are titrated into 20-40 μM EphA2 LBD. Experimental data are analyzed using the Origin software package (Microcal). The integrated values for the reaction heats are normalized to the amount of injected peptide after blank subtraction.
A general note: ITC needs no label: the signal is the heat of the interaction.

The target in series [4] is EphA2 (Homo sapiens, UniProt P29317). As to the kind of experiment: EphA2 autophosphorylation on tyrosine 588 in PC3 cells (immunoblot dose-response). It counts as cell-based. As to conditions: read-out: EC50 PY588. The arrangement: EphA2 is the prevalent endogenously expressed EphA receptor in these cells; endogenous in cells; host or cells: PC3 prostate cancer cells. The method, then: (FIG. 2A) Dose-response curves for EphA2 autophosphorylation on tyrosine 588 (pY588; purple) and for downstream inhibition of AKT phosphorylation (magenta). PC3 cells were treated for 15 min with different concentrations of the indicated peptides. […] The graphs show quantifications from multiple blots (averages ±SE; the number of experiments used to generate each curve is shown in Table 3). […] (FIG. 2B) Examples of immunoblots of lysates from PC3 cells treated with the indicated concentrations of representative ligands. […] A white vertical line indicates removal of irrelevant lanes. […] The bars show averages ±SE, and the individual measurements are shown as black dots. […] Plots of Etop versus EC50 for pY588 in FIG. 2D and for pAKT inh in FIG. 2E. Averages ±SE are shown for the peptides and ephrinA1.
EphA2, sequence (P29317 24-976): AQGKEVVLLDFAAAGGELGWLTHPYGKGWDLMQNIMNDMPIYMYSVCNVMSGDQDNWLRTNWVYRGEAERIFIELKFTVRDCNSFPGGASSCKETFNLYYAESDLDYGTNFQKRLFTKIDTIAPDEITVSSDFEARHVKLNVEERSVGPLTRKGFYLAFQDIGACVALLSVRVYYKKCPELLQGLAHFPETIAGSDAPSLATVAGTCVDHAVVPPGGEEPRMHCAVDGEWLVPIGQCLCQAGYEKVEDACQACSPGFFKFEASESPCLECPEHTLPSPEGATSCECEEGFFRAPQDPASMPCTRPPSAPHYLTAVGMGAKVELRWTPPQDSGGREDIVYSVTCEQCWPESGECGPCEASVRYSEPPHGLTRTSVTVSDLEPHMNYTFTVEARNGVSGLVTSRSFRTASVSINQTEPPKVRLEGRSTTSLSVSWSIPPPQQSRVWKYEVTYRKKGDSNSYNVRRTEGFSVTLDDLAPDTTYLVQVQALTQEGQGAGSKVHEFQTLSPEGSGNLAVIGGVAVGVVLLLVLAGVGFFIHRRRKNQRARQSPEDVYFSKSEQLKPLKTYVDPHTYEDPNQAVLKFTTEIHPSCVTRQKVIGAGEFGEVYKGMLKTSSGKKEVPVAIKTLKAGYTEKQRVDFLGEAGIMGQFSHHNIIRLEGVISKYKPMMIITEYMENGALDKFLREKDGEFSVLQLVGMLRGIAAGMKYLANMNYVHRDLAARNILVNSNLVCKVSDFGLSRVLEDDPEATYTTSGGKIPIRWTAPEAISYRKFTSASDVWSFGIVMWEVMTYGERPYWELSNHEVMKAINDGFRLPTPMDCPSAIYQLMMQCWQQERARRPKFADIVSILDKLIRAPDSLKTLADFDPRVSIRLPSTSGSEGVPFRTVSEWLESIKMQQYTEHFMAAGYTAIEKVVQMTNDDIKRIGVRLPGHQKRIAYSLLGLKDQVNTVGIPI
To examine the agonistic properties of the different dimeric peptide ligands, EphA2 autophosphorylation on tyrosine 588 (Y588) was measured, which is indicative of receptor activation and mediates binding of SH2 domain-containing proteins that link EphA2 to various downstream signaling pathways (FIG. 7). For these experiments, PC3 prostate cancer cells were stimulated with the dimeric peptides because EphA2 is the prevalent endogenously expressed EphA receptor in these cells, allowing comparisons with ephrins.
(Immunoblotting shows a protein as a band on a membrane.)

Setting [5] is: DMSO, Table 4, third of PBS/H20/DMSO, read-out: Solubility in DMSO.
[6] abbreviates: H2O, Table 4, second of PBS/H20/DMSO, read-out: Solubility in H20.
The mark [7] stands for this setting: PBS, Table 4, first of PBS/H20/DMSO, read-out: Solubility in PBS.
The mark [8] stands for this setting: Table 3, inhibition of EphA2-ephrinA5 interaction, averages ± SD, read-out: ICsa (nM) by ELISA.
The mark [9] stands for this setting: DMSO, third of PBS/H2O/DMSO, read-out: Solubility in DMSO.
Setting [10] is: H2O, second of PBS/H2O/DMSO, read-out: Solubility in H2O.
The mark [11] stands for this setting: PBS, first of PBS/H2O/DMSO, read-out: Solubility in PBS.

T1 sequence (P29317 24-537 limits assumed): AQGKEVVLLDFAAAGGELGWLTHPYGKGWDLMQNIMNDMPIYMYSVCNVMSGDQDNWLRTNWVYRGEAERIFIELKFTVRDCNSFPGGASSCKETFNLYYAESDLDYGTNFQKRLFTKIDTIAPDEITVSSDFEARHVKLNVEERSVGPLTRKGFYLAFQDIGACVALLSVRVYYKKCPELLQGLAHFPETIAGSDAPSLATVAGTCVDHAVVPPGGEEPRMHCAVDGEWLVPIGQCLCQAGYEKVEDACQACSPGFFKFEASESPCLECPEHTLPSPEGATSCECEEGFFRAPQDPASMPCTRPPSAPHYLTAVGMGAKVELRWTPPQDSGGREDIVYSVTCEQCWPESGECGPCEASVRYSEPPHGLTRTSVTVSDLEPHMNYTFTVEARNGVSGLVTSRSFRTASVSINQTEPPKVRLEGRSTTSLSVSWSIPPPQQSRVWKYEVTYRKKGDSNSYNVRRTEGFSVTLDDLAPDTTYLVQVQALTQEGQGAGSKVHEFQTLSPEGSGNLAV

For `CC(C)C[C@H](NC(=O)[C@H](Cc1c[nH]c2ccccc12)NC(=O)CCN)C(=O)N[C@@H](C)C(=O)N[C@@H](Cc1ccc(O)cc1)C(=O)N1CCC[C@H]1C(=O)N[C@@H](CC(=O)O)C(=O)N[C@@H](CO)C(=O)N[C@H](C(=O)N1CCC[C@H]1C(=O)N[C@@H](Cc1ccc(O)cc1)C(=O)N[C@@H](CCCNC(=N)N)C(=O)N1CCC[C@H]1C(=O)N[C@@H](CCCCN)C(=O)NCCCC[C@H](NC(=O)[C@H](CCCCN)NC(=O)[C@@H]1CCCN1C(=O)[C@H](CCCNC(=N)N)NC(=O)[C@H](Cc1ccc(O)cc1)NC(=O)[C@@H]1CCCN1C(=O)[C@@H](NC(=O)[C@H](CO)NC(=O)[C@H](CC(=O)O)NC(=O)[C@@H]1CCCN1C(=O)[C@H](Cc1ccc(O)cc1)NC(=O)[C@H](C)NC(=O)[C@H](CC(C)C)NC(=O)[C@H](Cc1c[nH]c2ccccc12)NC(=O)CCN)C(C)C)C(=O)O)C(C)C` [compound 3], the results for the solubility in series [1] (setting [5]), in series [1] (setting [6]) and in series [1] (setting [7]) were 10000 µg/mL (≈ 2910 µM), 5000 µg/mL (≈ 1460 µM) and less than 100 µg/mL, respectively. Moreover, in series [2] (setting [8]), the IC50 amounted to 0.77 nM.

Turning to `CC(C)C[C@H](NC(=O)[C@H](Cc1c[nH]c2ccccc12)NC(=O)[C@H](C)NC(=O)CNC(=O)[C@@H](N)CSSC[C@H](N)C(=O)NCC(=O)N[C@@H](C)C(=O)N[C@@H](Cc1c[nH]c2ccccc12)C(=O)N[C@@H](CC(C)C)C(=O)N[C@@H](C)C(=O)N[C@@H](Cc1ccc(O)cc1)C(=O)N1CCC[C@H]1C(=O)N[C@@H](CC(=O)O)C(=O)N[C@@H](CO)C(=O)N[C@H](C(=O)N1CCC[C@H]1C(=O)N[C@@H](Cc1ccc(O)cc1)C(=O)N[C@@H](CCCNC(=N)N)C(=O)O)C(C)C)C(=O)N[C@@H](C)C(=O)N[C@@H](Cc1ccc(O)cc1)C(=O)N1CCC[C@H]1C(=O)N[C@@H](CC(=O)O)C(=O)N[C@@H](CO)C(=O)N[C@H](C(=O)N1CCC[C@H]1C(=O)N[C@@H](Cc1ccc(O)cc1)C(=O)N[C@@H](CCCNC(=N)N)C(=O)O)C(C)C` [compound 4] (I: H-CGAWLAYPDSVPYR-OH / II: H-CGAWLAYPDSVPYR-OH; disulfide I:1-II:1; C-terminus assumed), the solubility is 10000 µg/mL (≈ 3130 µM) in series [1] (setting [5]); 10000 µg/mL (≈ 3130 µM) in series [1] (setting [9]); less than 100 µg/mL in series [1] (setting [10]); less than 100 µg/mL in series [1] (setting [7]); less than 100 µg/mL in series [1] (setting [11]); less than 100 µg/mL in series [1] (water, Table 4, second of PBS/H20/DMSO, read-out: Solubility in H20). Further, in series [2] (inhibition of ephrin-A5 binding to EphA2, number of experiments in parentheses, read-out: Inc50 (nM) by ELISA), the IC50 is 7.9 ± 1.9 nM. In addition, in series [3], binding was characterised by a dissociation constant (Kd) of 104 ± 1 nM.

On to `CC(C)C[C@H](NC(=O)[C@H](Cc1c[nH]c2ccccc12)NC(=O)[C@H](C)NC(=O)CNC(=O)[C@@H](N)Cc1cn(CCCC[C@H](N)C(=O)N[C@@H](C)C(=O)N[C@@H](Cc2c[nH]c3ccccc23)C(=O)N[C@@H](CC(C)C)C(=O)N[C@@H](C)C(=O)N[C@@H](Cc2ccc(O)cc2)C(=O)N2CCC[C@H]2C(=O)N[C@@H](CC(=O)O)C(=O)N[C@@H](CO)C(=O)N[C@H](C(=O)N2CCC[C@H]2C(=O)N[C@@H](Cc2ccc(O)cc2)C(=O)N[C@@H](CCCNC(=N)N)C(=O)N2CCC[C@H]2C(=O)N[C@@H](CCCCN)C(N)=O)C(C)C)nn1)C(=O)N[C@@H](C)C(=O)N[C@@H](Cc1ccc(O)cc1)C(=O)N1CCC[C@H]1C(=O)N[C@@H](CC(=O)O)C(=O)N[C@@H](CO)C(=O)N[C@H](C(=O)N1CCC[C@H]1C(=O)N[C@@H](Cc1ccc(O)cc1)C(=O)N[C@@H](CCCNC(=N)N)C(=O)N1CCC[C@H]1C(=O)N[C@@H](CCCCN)C(N)=O)C(C)C` [compound 7], for which the solubility in series [1] (setting [9]) was 10000 µg/mL (≈ 2750 µM); in series [1] (setting [6]) it was 5000 µg/mL (≈ 1380 µM); in series [1] (setting [10]), 5000 µg/mL (≈ 1380 µM); in series [1] (setting [7]) it was 1000 µg/mL (≈ 275 µM); in series [1] (setting [11]), less than 100 µg/mL. The EC50 in series [4] turned out to be 0.22 ± 0.04 nM. Also, the IC50 in series [2] (setting [8]) was found to be 0.54 nM.

For `CC(C)C[C@H](NC(=O)[C@H](Cc1c[nH]c2ccccc12)NC(=O)CCN)C(=O)N[C@@H](C)C(=O)N[C@@H](Cc1ccc(O)cc1)C(=O)N1CCC[C@H]1C(=O)N[C@@H](CC(=O)O)C(=O)N[C@@H](CO)C(=O)N[C@H](C(=O)N1CCC[C@H]1C(=O)N[C@@H](Cc1ccc(O)cc1)C(=O)N[C@@H](CCCNC(=N)N)C(=O)N1CCC[C@H]1C(=O)N[C@@H](CCCCN)C(=O)NCC(=O)NCC(=O)N[C@@H](C)C(=O)N[C@@H](Cc1c[nH]c2ccccc12)C(=O)N[C@@H](CC(C)C)C(=O)N[C@@H](C)C(=O)N[C@@H](Cc1ccc(O)cc1)C(=O)N1CCC[C@H]1C(=O)N[C@@H](CC(=O)O)C(=O)N[C@@H](CO)C(=O)N[C@H](C(=O)N1CCC[C@H]1C(=O)N[C@@H](Cc1ccc(O)cc1)C(=O)N[C@@H](CCCNC(=N)N)C(=O)N1CCC[C@H]1C(=O)N[C@@H](CCCCN)C(N)=O)C(C)C)C(C)C` [compound 8, linear dimer (head-to-tail)] (H-[βAla]WLAYPDSVPYRPKGGAWLAYPDSVPYRPK-NH2; N-terminus assumed), the solubility was found to be 10000 µg/mL (≈ 2920 µM) in series [1] (setting [9]), 5000 µg/mL (≈ 1460 µM) in series [1] (setting [6]), 5000 µg/mL (≈ 1460 µM) in series [1] (setting [10]) and 1000 µg/mL (≈ 292 µM) in series [1] (setting [11]). Moreover, the “ICsa (nM) by ELISA” value in series [2] (Table 3, inhibition of EphA2-ephrinA5 interaction, averages ± SD) is “subnanomolar”.

With `O=C(O)CCCC[C@@H]1SC[C@@H]2NC(=O)N[C@@H]21` [free biotin, biotin, reference compound], in series [3] (high biotin concentration (1 mM)), the “binding to the EphA2 LBD by ITC” value was “did not detect binding”.
